Data on one compound can be found in patent publication US20090123581A1, “COLLAGEN CROSS-LINKING AGENTS ON DENTAL RESTORATIVE TREATMENT AND PREVENTIVE DENTISTRY” (THE BOARD OF TRUSTEES OF THE UNIVERSITY OF ILLINOIS, priority 2006, published 2009).

The nature of test [1]: Ultimate tensile strength (UTS) of undemineralized (mineralized) dentin after cross-linker treatment (Example 1). The arrangement: species or system human. As to conditions: 0.625% GE or 5% GD; for Ultimate tensile strength, mean: pH 7.4. The text has this: Fixation Processes: Ten sound freshly extracted human molars were used in this study. The teeth were thawed, cleaned of adhering soft tissues, and the occlusal surfaces were ground flat with #320 grit Silicon Carbide paper under running water to remove part of the enamel. Flattening of the occlusal surface by removal of the cusps enables accurate sectioning of samples in beam shape. Teeth were sectioned into 0.5±0.1 by 0.5±0.1 mm thick beams (n=20 beams per tooth) with a slow speed diamond wafering blade (Buehler-Series 15LC Diamond, Lake Bluff, Ill., USA) under constant water coolant (FIG. 1A).
The slabs were randomly divided into two groups: 1) undemineralized dentin and 2) demineralized dentin (FIG. 1A). In Group 2, dentin beams were immersed in 10% phosphoric acid solution (Fisher Scientific, New Jersey, N.J.) for a period of 5 hours. X-rays were taken from the specimens to verify complete tissue demineralization. Specimens were thoroughly rinsed with distilled water for 10 minutes to remove any residue of the phosphoric acid.
Specimens from groups 1 and 2 were subdivided according to the dentin treatment (FIG. 1B). In Treatment A, specimens were immersed in PBS solution (pH: 7.4) as a control. In Treatment B, specimens were immersed in 0.5% Proanthocyanidin (MegaNatural—Polyphenolics Ind.) PBS solution (PA) at a pH of 7.4. In Treatment C, specimens were immersed in 0.625% Genipin (Wako Pure Chemical Ind.) PBS solution (GE) at a pH of 7.4. In Treatment D, specimens were immersed in 5% glutaraldehyde solution (GD) (Fisher Scientific, New Jersey, N.J.) at a pH of 7.4. Specimens were kept in their respective solutions for 4 and 40 hours at room temperature. After the incubation periods, specimens were thoroughly rinsed with distilled and deionized water to remove any remains of cross-linking agents and buffer.
UTS testing: For UTS evaluation, the specimens were glued with a cyanoacrylate adhesive (Zapit—Dental Ventures of America Inc., Corona, Calif.) to a Ciucchi's jig, which was mounted on a universal testing machine (EZ Test, Shimazu Co., Kyoto, Japan) and subjected to microtensile testing at a crosshead speed of 1 mm/min (FIG. 1C). Means and standard deviations were calculated and expressed in microtensile bond strengths (MPa). Statistical analysis was performed using a two-way ANOVA and Fisher's PLSD tests (p<0.05).

Test [2] in a line: Microtensile bond strength of adhesive restoration to caries-affected dentin (Example 2). The arrangement: species or system human. As to conditions: caries-affected demineralized dentin; 5% glutaraldehyde for 5 minutes; versus control. The procedure: Effect of an exogenous collagen cross-linking agent on dentin bonding: In order to analyze the contribution of exogenous collagen cross-linking to sound and caries-affected dentin bonding, demineralized dentin surfaces were treated with 5% glutaraldehyde and the restored specimens were subjected to microtensile bond strength testing.
Specimen preparation: Six human molars stored frozen (−20° C.) for less then one month were used. The teeth presented occlusal caries in which enamel was visually intact. The teeth were thawed, cleaned of adhering soft tissues, and the occlusal surfaces were ground flat with #320 and #600 grit Silicon Carbide (Sic) papers under running water to remove the enamel and expose flat middle dentin, respectively. […]
Microtensile bond test (MTB): After 24 hrs in water at 37° C., the teeth were sectioned into 0.7±0.2 mm thick slabs, and the interfaces trimmed to an hourglass shape using a fine diamond bur to produce a cross-sectional area of 1 mm^2. The thickness of the slabs and the width of the trimmed surface were measured using a digital caliper (Fisher Scientific, New Jersey, N.J.) and specimens in sound and caries-affected dentin were obtained. […] MPa were determined by dividing the fracture load by the cross-sectional area of the interface.

Test [3] in a line: UTS of demineralized crown dentin tested parallel and perpendicular to dentinal tubules (Example 4). As to conditions: 1 hour. As to the method:
Specific synthetic and natural chemicals may increase the number of collagen cross-links within tooth dentin. To evaluate the effects of two cross-linking agents of different concentrations on the UTS of demineralized crown dentin tested parallel and perpendicular to dentinal tubules, the experiment described below was performed. FIG. 6 illustrates the steps of specimen preparation and treatment.
Twenty sound molars were sectioned into 0.5±0.1 mm thick slabs that were further trimmed to 0.5±0.1 mm according to the tubule orientation (parallel-PR or perpendicular-PE). Specimens were demineralized with 10% phosphoric acid and divided into 10 groups according to treatment: control (water solution)/PR; control/PE, 6.5% proanthocyanidin (PA)/PR, 6.5% PA/PE; 0.65% PA/PR; 0.65% PA/PE; 25% glutaraldehyde (GD)/PR; 25% GD/PE; 5% GD/PR; 5% GD/PE. Specimens were kept in their respective solutions for 1 hour. To assess UTS, specimens were subjected to tensile forces at a crosshead speed of 1 mm/min. Statistical analysis was performed using two-way ANOVA and Fisher's PLSD test (p<0.05).

A short description of test [4]: Tensile bond strength (TBS) of a total-etch adhesive with or without proteolytic challenge (Example 5). The arrangement: species or system human. The note with it: for TBS (tensile bond strength): 5% glutaraldehyde 1 hour after etching, One-Step adhesive. The procedure:
To evaluate the effect of glutaraldehyde on the tensile bond strength (TBS) of a total-etch adhesive with or without proteolytic challenge, the experiment described below was performed.
Ten human molars were polished until occlusal dentin was exposed and were divided according to the surface treatment: a control (no treatment) treatment (G1) and a 5% glutaraldehyde treatment (G2). Samples of G1 were etched with 37% phosphoric acid, rinsed, blotted dried, and One-Step (Bisco, Richmond, BC, Canada) was applied, followed by application of a composite resin used to build-up a “crown.” G2 was treated in the same manner, except that after etching, 5% glutaraldehyde was applied on the surface for 1 hour. After 24 hours, samples were sectioned into 1.0×1.0 mm beams. The beams were subdivided according to the proteolytic challenge: stored in water for 2 hours (no challenge) and stored in 1.5% NaOCl solution for 2 hours. Then samples were rinsed and tested in tensile at a crosshead speed of 1 mm/min using a universal testing machine. Data were statistically analyzed using ANOVA and Fisher's PLSD tests (p<0.05).

`O=CCCCC=O` [GD, glutaraldehyde]: the “Ultimate tensile strength, mean” value in test [1] (4 hours in 0.5% PA) was 94.5 MPa; in test [1] (40 hours in 0.5% PA) it was 110.4 MPa. In addition, in test [1] (pooled over 4 and 40 hours, 0.5% PA), the “Ultimate tensile strength, pooled data” value came to 102.5 A MPa. For the same compound, the “increase in the bond strength values” in test [2] stood at 35%. Moreover, the UTS was 9.8 ± 1.5^BCD,b MPa in test [3] (5% GD, tested Parallel to dentinal tubules); 15.7 ± 4.9^BCD,a MPa in test [3] (5% GD, tested Perpendicular to dentinal tubules); 10.7 ± 2.7^B,b MPa in test [3] (25% GD, tested Parallel to dentinal tubules); 18.6 ± 5.7^B,a MPa in test [3] (25% GD, tested Perpendicular to dentinal tubules). In addition, the “TBS (tensile bond strength)” value in test [4] (No challenge (water 2 hours)) is listed as 71.11 (12.20)A MPa; in test [4] (stored in 1.5% NaOCl 2 hours) it was 65.91 (18.06)AB MPa. In addition, the “change in TBS values after NaOCl storage” value in test [4] (5% glutaraldehyde, 1.5% NaOCl 2 hours) was “not significantly affected”.
